This passage reports IC50 results from PubChem BioAssay AID493003 (Sanford-Burnham Center for Chemical Genomics, 2010).

The source made the active and inactive calls. How the calls were made is not given here.

The assay relates to S. cerevisiae tim10-1 mutant growth, luminescence. As to the kind of experiment: growth inhibitors of tim10-1 mutant yeast, dose response, luminescence, S. cerevisiae, uHTS hits (AID 493003).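 Further: yeast growth measured after about 22 hours at 25 °C.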
As a reminder, the IC50 is the concentration that inhibits the measured activity by half. As for `O=C(c1ccco1)N1CCN(c2ncnc3scc(-c4ccccc4)c23)CC1`, the half-inhibitory concentration (IC50) was 17.7 µM. For `Cn1c(NCc2c(O)ccc3ccccc23)nc2ccccc21` the value was > 100 µM (inactive); for `O=C(Nc1nccs1)c1ccc(Br)c(S(=O)(=O)N2CCOCC2)c1`, 27.7 µM; for `Cc1cc(C)n(CC(O)Cn2c3ccc(Br)cc3c3cc(Br)ccc32)c(=O)n1` (stereo not drawn), 19.3 µM. As to `Cc1ccsc1C1Nc2ccccc2-c2nc3ccccc3n21` (stereo not drawn), the IC50 is 28.5 µM. For `OC(COc1ccccc1)Cn1c2ccccc2c2ccccc21` (stereo not drawn) the value was 29.4 µM.

Take `Cc1cc(Br)c(Cl)cc1NC(=O)CN1C(=O)C2C3CC(c4ccccc4)C(C3)C2C1=O` (stereo not drawn): the IC50 was 27.1 µM. For `CNc1nc(-c2ccccn2)nnc1-c1ccccc1` the value was 29.8 µM; for `Cc1onc(-c2ccc3c(c2)OCO3)c1-c1ccc2[nH]ccc2c1`, 14.3 µM. Consider `Cc1[nH]c(-c2ccc(F)cc2)cc1C(=O)N1CCN(c2ccccc2F)CC1`, for which the 50% inhibitory concentration (IC50) was 35.5 µM. Take `CCOC(=O)N1CCN(S(=O)(=O)c2ccc3c(c2)CCN3C(=O)C2CCC2)CC1`: the IC50 is 34.2 µM. For `COC(=O)N1C(=O)[C@@](c2ccccc2)(C2CCCCC2)N1C(=O)OC` the value was 61.7 µM; for `COc1cc2c(cc1OC)CN(c1ccc([N+](=O)[O-])cc1Cl)CC2`, 27.6 µM. Take `COc1ccc(-n2c(CNc3ccc(C)cc3)nnc2SCc2ccccc2)cc1`: the IC50 was 26.4 µM.

Turning to `FC(F)Sc1ccc(NC(=S)NC2CCCC2)cc1`, the half-maximal inhibitory concentration (IC50) is 20.8 µM.

`CCc1c(C)[nH]n(-c2nc(-c3ccccc3)cs2)c1=O`: the IC50 is 38.4 µM.

Regarding `C(=N\N1CCOCC1)/c1cn(-c2ccccc2)nc1-c1ccccc1`, the IC50 was 33.7 µM. For `O=[N+]([O-])c1ccccc1/C=C/C=N/n1c(-c2ccccc2)n[nH]c1=S`, the half-inhibitory concentration (IC50) is 73.4 µM.

In the case of `CSc1ccccc1OCc1cc(C(=O)N2CCC(Oc3cccnc3)CC2)no1`, the IC50 was 39.9 µM.

Regarding `O=[N+]([O-])c1cccc(NC(=S)NCCc2ccccc2)c1`, the IC50 was 32.8 µM.

With `CN(c1ccccc1)C1CCCCC1NS(=O)(=O)c1ccc(Cl)cc1` (stereo not drawn), the IC50 is 65.4 µM. The value for `Clc1ccc(Cl)c2sc(N3CCCC3)nc12` was 35.7 µM; that for `CCCOc1ccc(CN(CCC#N)C(=S)NC(=O)c2ccccc2)cc1` was 10.9 µM. For the compound `O=C(CSCC(=O)N1CCCCC1)Nc1nc(-c2ccc(Cl)s2)cs1`, the IC50 was 37.9 µM. The value for `O=C(NC1CCCCC1)c1ccc(-c2ccc(Cl)cc2)o1` was 17.4 µM.

Consider `CC(C)(C)c1ccc(-c2n[nH]c(=S)n2Cc2ccccc2)cc1`, for which the 50% inhibitory concentration (IC50) is 33.1 µM.

As for `Cc1ccc(NC(=O)CN2CCC3(O)CCCCC3C2c2ccc3c(c2)OCO3)c(C)c1` (stereo not drawn), the 50% inhibitory concentration (IC50) is 60.9 µM. For `Cc1nc2c(-c3ccccc3)cnn2c(N)c1-c1ccccc1` the value was 24 µM; for `CC(C)c1ccc(S(=O)(=O)N2CCN(CC(=O)Nc3ccc4c(c3)OCO4)CC2)cc1`, 75.4 µM. Regarding `Cc1cccc(Nc2ncccc2C(=O)NCc2cccs2)c1C`, the IC50 was 53.3 µM. `Cc1cc(NC(=O)c2ccccc2Oc2ccccc2)no1`: the IC50 was 60.3 µM. For `COc1ccc2[nH]c3c(=O)n4c(nc3c2c1)SCCC4`, the 50% inhibitory concentration (IC50) is 40.7 µM.

For the compound `N/C(CCS(=O)(=O)c1ccc(Cl)cc1)=N\OC(=O)c1ccccc1C(F)(F)F`, the half-inhibitory concentration (IC50) is 37.5 µM. The value for `Cc1ccc2cc3cc(C(=O)NCCCN4CCc5ccccc5C4)oc3nc2c1` was > 100 µM (inactive); that for `Cc1ccc(OCC(=O)O/N=C(\N)Cc2ccc(Cl)cc2)cc1` was 9.22 µM; that for `C/C(=N\NC(=S)NCc1ccccc1)c1ccc(Cl)s1` was 16.4 µM.

In the case of `Cc1nn(-c2ccc(Cl)cc2)c2[nH]c(CCl)cc(=O)c12`, the IC50 is 33.5 µM.

As to `Cc1cc(C)cc(N2C(=O)CC(Sc3nnnn3-c3ccccc3)C2=O)c1` (stereo not drawn), the IC50 was 13.6 µM. As for `CCOC(=O)c1cnc2ccc(OC)cc2c1Nc1ccc2c(c1)OCCO2`, the concentration for half-maximal inhibition (IC50) is 79.3 µM.

On to `CCCc1ccc(-c2c(C)sc(N)c2C#N)cc1`, for which the 50% inhibitory concentration (IC50) was 19.2 µM. Regarding `CCC1CCCCN1c1nc(-c2ccncc2)nc2ccccc12` (stereo not drawn), the IC50 is 34.3 µM. With `O=c1c2ccccc2nc(/C=C/c2ccc([N+](=O)[O-])o2)n1CCCO`, the half-inhibitory concentration (IC50) was 4.53 µM. The value for `N#C/C(=C/c1ccc(N2CCCCCC2)o1)c1cccc(F)c1` was 14.9 µM; that for `Cc1ccc(S(=O)(=O)Nc2ccc(N=Nc3ccc(O)cc3)cc2)cc1` was 20.9 µM. For `O=C(NC(=S)NCc1ccccc1)c1ccccc1F` the value was 66.5 µM. As for `COc1ccc(-c2noc(C3CCCN(C(=O)CCc4ccccc4)C3)n2)cc1` (stereo not drawn), the IC50 is 17.9 µM. The value for `Cc1nn(Cc2ccc(Cl)cc2)c(C)c1NC(=O)c1c(-c2ccccc2)noc1C` was 76.1 µM. For `C[C@H]1C=CC(=O)O[C@H]1c1ccccc1` the value was 21 µM. Turning to `COc1ccc(C(=O)O/N=C(\N)c2ccccc2Cl)cc1OC`, the concentration for half-maximal inhibition (IC50) is 15 µM. The value for `O=C(Nc1cccnc1)c1cn(-c2ccccc2)nc1-c1cccs1` was 13.2 µM. Take `O=[N+]([O-])c1ccc(Sc2cccc3cccnc23)c([N+](=O)[O-])c1`: the 50% inhibitory concentration (IC50) was 78.7 µM. Regarding `O=C(c1ccc2c3n(nc2c1)-c1ccccc1CO3)N1CCCCC1`, the IC50 was 13.4 µM. The value for `Cc1nc(CN2CCN(S(=O)(=O)c3c(Cl)cc(Br)cc3Cl)CC2)cs1` was 18.6 µM; that for `Cc1nc(Nc2ccccc2)sc1-c1ccccc1` was 11.9 µM; that for `CCCc1cc(-c2n[nH]c(=S)n2-c2cccc(C)c2)cs1` was 37.5 µM. The value for `CC(CC(=O)Nc1ncc([N+](=O)[O-])s1)c1ccccc1` (stereo not drawn) was 18.5 µM; that for `CC1CCN(S(=O)(=O)c2ccc(NC(=O)Cc3cccs3)cc2)CC1` was 46.5 µM. For `O=C1NCCc2c1[nH]c1c(Cl)ccc(Cl)c21` the value was 47.8 µM.

For `COc1ccc(C(=O)O/N=C(\N)c2ccc(Cl)cc2)cc1`, the IC50 is 13.3 µM.

Regarding `Cn1c(CSc2nnc(SCc3ccccc3)s2)nc2ccccc21`, the half-maximal inhibitory concentration (IC50) is 19.6 µM.

As to `CCN1C(=O)C(CC(=O)Nc2ccc(OC)cc2)N(CCc2ccc(OC)cc2)C1=S` (stereo not drawn), the IC50 was 32.2 µM.

With `C=CCn1c(SCc2c(F)cccc2Cl)nnc1-c1ccco1`, the IC50 is 34.8 µM. The value for `COc1ccc(/C=C2\CCc3ccccc3C2=O)cc1Cn1cccn1` was 25.6 µM. For the compound `Cc1ccc2nc(C)c(C(=O)N/N=C/c3cccc([N+](=O)[O-])c3)cc2c1`, the IC50 was 25.8 µM. The value for `CCOC(=O)c1sc2ncnc(NCc3ccco3)c2c1C` was 30.5 µM.

With `COc1ccc(C(=O)C(CN2CCCC2)c2ccccc2)cc1` (stereo not drawn), the half-inhibitory concentration (IC50) was 19 µM. Regarding `Cc1cc(C)n2nc(SCc3c(F)cccc3Cl)nc2n1`, the IC50 is > 100 µM (inactive). The value for `Nc1cc2c(cc1C(=O)c1ccc(Cl)cc1)OCCO2` was 38.2 µM; that for `COc1ccc(/C(N)=N/OC(=O)c2ccc3c(c2)OCO3)cc1` was 14.9 µM; that for `CCOC(=O)N1CCN(S(=O)(=O)c2ccc(C(=O)N(CCN(CC)CC)c3nc4ccc(C)cc4s3)cc2)CC1` was 60.8 µM. The value for `CC/C(=N\Nc1ccccc1[N+](=O)[O-])c1ccc(O)cc1` was 20 µM; that for `COC(C/C=C/C(=O)COCc1ccccc1)OC` was 37.2 µM. For `O=c1oc2ccccc2c(O)c1/C=C1\C=Nc2ccccc21` the value was 6.24 µM.
